Values quoted from earlier work, collected in US6673333B1, “Functional MRI agents for cancer imaging” (Research Corporation Technologies, Inc., priority 2000, dated 2004).

What was measured:
[1] = thermodynamic stability of the Gd(III) chelate complex
[2] = at physiological pH

Compound | stability constant (K), formation constant, logK [1] | dissociation kinetics [2]
O=C([O-])CN(CCN(CC(=O)[O-])CC(=O)[O-])CCN(CC(=O)[O-])CC(=O)[O-].[Gd+3] [Gd(DTPA)^2−] | 22.4 | 
O=C([O-])CN1CCN(CC(=O)[O-])CCN(CC(=O)O)CCN(CC(=O)[O-])CC1.[Gd+3] [Gd-DOTA] | 28.5 | very slow
